Experimental data from patent US12528767B2, “HDAC6 inhibitors and uses thereof” (Eikonizo Therapeutics, Inc., priority 2019, dated 2026).
Read-outs that look alike come from different tables or passages of the source.

Key:
[1] = Metabolic stability in liver microsomes: Mouse CD1; type: in vitro ADME; conditions: 1 μM compound, 0.3 mg/mL protein, NADPH, 37° C., read-out: Mouse CD1 Liver Microsome Stability Half-life
[2] = biological target: T1, Full length Human HDAC6 (Homo sapiens, UniProt Q9UBN7); conditions: for Selectivity (6 v 8) (fold): ratio of HDAC8 IC50/HDAC6 IC50
T1 sequence (Q9UBN7 1-1215): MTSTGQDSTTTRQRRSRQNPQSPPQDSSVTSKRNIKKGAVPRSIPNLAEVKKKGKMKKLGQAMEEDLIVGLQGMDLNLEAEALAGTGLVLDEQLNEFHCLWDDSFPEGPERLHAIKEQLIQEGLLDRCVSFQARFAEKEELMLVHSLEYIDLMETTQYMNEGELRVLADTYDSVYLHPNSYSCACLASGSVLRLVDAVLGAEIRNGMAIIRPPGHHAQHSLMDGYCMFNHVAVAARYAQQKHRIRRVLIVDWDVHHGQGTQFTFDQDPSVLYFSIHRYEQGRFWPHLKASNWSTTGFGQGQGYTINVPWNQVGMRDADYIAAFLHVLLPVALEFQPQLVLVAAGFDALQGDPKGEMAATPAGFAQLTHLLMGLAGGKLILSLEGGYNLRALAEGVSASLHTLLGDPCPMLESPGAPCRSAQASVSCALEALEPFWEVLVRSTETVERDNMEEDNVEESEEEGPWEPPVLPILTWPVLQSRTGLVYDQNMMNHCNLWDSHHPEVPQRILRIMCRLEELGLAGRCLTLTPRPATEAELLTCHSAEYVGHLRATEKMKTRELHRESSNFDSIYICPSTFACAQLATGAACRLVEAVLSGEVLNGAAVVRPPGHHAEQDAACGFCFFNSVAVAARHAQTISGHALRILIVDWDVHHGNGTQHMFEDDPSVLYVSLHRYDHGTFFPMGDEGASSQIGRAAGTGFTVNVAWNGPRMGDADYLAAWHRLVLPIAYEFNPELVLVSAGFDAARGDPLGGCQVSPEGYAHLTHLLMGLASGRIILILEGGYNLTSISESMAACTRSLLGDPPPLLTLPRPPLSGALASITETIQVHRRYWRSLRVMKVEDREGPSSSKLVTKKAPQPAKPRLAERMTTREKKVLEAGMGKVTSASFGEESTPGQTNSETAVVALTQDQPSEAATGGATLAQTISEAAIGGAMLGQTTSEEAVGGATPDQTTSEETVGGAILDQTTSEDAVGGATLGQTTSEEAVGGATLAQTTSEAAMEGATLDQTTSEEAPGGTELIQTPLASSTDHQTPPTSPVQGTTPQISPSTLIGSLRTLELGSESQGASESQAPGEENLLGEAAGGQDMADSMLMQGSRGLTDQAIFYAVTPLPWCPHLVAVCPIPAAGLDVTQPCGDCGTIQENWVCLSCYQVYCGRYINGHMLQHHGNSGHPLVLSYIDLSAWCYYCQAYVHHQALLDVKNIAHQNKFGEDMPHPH

[3] = biological target: T2, Human HDAC7 aa 518-end (Homo sapiens, UniProt Q8WUI4)
T2 sequence (Q8WUI4 518-952 limits assumed): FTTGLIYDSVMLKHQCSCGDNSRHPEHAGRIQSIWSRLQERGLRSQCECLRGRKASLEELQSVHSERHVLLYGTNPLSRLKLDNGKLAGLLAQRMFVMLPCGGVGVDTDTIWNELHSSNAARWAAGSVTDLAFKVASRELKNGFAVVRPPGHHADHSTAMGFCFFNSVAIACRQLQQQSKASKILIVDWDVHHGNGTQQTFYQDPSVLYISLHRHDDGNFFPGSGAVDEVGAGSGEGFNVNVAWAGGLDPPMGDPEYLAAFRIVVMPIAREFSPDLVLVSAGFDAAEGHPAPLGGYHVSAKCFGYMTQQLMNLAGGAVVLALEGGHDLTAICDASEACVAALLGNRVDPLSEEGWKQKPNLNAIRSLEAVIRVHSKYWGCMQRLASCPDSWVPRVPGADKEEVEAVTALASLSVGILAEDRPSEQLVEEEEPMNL

[4] = biological target: T3, Full length Human HDAC8 (Homo sapiens, UniProt Q9BY41)
T3 sequence (Q9BY41 1-377): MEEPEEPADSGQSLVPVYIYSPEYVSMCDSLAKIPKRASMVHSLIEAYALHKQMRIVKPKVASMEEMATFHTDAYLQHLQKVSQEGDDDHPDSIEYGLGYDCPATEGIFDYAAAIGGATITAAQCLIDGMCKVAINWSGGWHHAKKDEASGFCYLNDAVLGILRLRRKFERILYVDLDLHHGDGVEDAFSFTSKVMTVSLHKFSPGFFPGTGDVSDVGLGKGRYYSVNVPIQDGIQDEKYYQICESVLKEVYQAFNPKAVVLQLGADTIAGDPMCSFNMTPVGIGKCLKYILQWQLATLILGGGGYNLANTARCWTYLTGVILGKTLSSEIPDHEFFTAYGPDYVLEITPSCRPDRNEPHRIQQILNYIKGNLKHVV

[5] = biological target: T4, Full length Human HDAC10 (Homo sapiens, UniProt Q969S8)
T4 sequence (Q969S8 1-669): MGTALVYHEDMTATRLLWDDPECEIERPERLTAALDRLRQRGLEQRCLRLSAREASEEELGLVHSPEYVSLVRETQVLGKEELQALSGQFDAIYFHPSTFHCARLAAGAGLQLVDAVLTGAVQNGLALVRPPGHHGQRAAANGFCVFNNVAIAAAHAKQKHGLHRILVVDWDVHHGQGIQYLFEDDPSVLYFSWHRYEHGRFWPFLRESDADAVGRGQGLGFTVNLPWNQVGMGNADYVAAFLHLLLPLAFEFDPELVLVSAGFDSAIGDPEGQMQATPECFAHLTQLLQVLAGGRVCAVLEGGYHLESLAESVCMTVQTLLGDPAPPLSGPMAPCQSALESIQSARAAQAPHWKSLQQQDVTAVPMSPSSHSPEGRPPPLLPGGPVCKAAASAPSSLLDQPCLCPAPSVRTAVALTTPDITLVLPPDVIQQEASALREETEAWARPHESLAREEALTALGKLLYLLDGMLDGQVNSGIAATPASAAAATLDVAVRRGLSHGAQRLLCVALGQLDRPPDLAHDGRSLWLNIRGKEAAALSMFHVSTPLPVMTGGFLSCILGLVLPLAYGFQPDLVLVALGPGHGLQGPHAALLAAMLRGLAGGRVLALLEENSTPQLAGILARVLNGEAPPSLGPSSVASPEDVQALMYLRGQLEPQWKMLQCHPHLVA

[6] = Cell viability in primary rat dorsal root ganglia (DRG); type: cell-based
[7] = in vitro; conditions: human
[8] = in vitro; conditions: human; remark: listed apart in the source
[9] = Metabolic stability in liver microsomes: Mouse BL6; type: in vitro ADME; conditions: 1 μM compound, 0.3 mg/mL protein, NADPH, 37° C., read-out: Mouse BL6 Liver Microsome Stability Half-life
[10] = Plasma protein binding assay (Rapid Equilibrium Dialysis): mouse; type: in vitro ADME; design: dose or concentration left out as unconfirmed; conditions: pH 7.4, RED, 5 hours at 37° C.
[11] = Plasma stability assay: mouse; type: in vitro ADME; conditions: 10 μM, 37° C.
[12] = test system: tubulin acetylation (acTubK40) in undifferentiated SH-SY5Y cells; assay: Tubulin acetylation in cells (Western immunoblot); type: cell-based; conditions: Homo sapiens, 4 hours, acetylTubulin/Tubulin ratio
Description: (§1) Compound EC50 Determination for Tubulin- and Histone H3 Acetylation in Cells
(§2) Estimation of the EC50 for exemplary compounds to alter target protein acetylation in undifferentiated SH-SY5Y cells was performed using standard Western immunoblotting methods. […] SH-SY5Y cells were grown to 90% confluency on sterile cell growth plates. 10 mM compound stocks prepared in DMSO and two-fold serial dilutions were prepared from the stock and applied to cells to achieve a 12-point concentration range in cell media from an upper limit of 10 μM to a lower limit of DMSO [zero compound].
(§3) Cells were incubated under normal growth conditions (37° C., 5% CO2) in the presence of compound for 4 hours, then media was aspirated and cells were rinsed two times with 1×DPBS with calcium and magnesium warmed to 37° C. Cells were frozen directly on the plates on a bed of dry ice for 5 min, then stored at −80° C. until protein extraction.
(§4) Protein extraction was performed in RIPA buffer (50 mM Tris-HCL pH 8.0, 150 mM NaCl, 0.5% sodium deoxycholate, 0.1% sodium dodecyl sulfate, 1% NP-40) supplemented with Pierce protease inhibitor mini tables (Thermofisher cat #A32953) exactly as described by the manufacturer. After thawing the plate on a bed of wet ice for 10 minutes, lysis buffer was added to each well (e.g. 100 μL per well of a 24-well plate) and cells scraped from the bottom of each well. Lysates were then sonicated over ice (40% power, 30 pulses of 1 second on, 2 seconds off), centrifuged at 16,000 g for 10 min at 4° C., and the clarified supernatant saved. Protein concentration was determined by BCA assay and at least 3 μg prepared per lane by combining lysate supernatant aliquot with 1/3 total volume of 3× gel loading buffer containing DTT (NEB Cat. #B7703S), heating for 5 minutes at 95° C., briefly centrifuging and then loading on an SDS-PAGE gel.
(§5) Proteins were resolved on a 4-20% Tris-Glycine gel and transferred to PVDF membrane using an iBlot2 dry transfer system. The membrane was then blocked for at least 30 minutes at room temperature in TBST containing 5% milk or 5% bovine serum albumin, then incubated overnight at 4° C. with a single primary antibody from the following table:
(§6) Following primary antibody incubation, membranes were washed, incubated in secondary antibody, washed and incubated in ECL prime western blotting detection reagent (Amersham #RPN223) with membrane exposure and ECL signal capture in a LI-COR Odyssey Imaging system. […] Subsequent densitometry of immunoreactive bands was performed using the ImageStudio software and Microsoft Excel resulting in the following ratios: acetylTubulin/Tubulin and acetyl histone H3K9/histone H3. Raw ratios were uploaded to GraphPad Prism v7.0 with EC50 values modeled using the variable slope equation for log-transformed data [log(agonist) vs response in Prism].

[13] = test system: histone H3 acetylation (acH3K9) in undifferentiated SH-SY5Y cells; assay: Histone H3 acetylation in cells (Western immunoblot); type: cell-based; conditions: Homo sapiens, 4 hours, acetyl histone H3K9/histone H3 ratio
Description: as §1, §2, §3, §4, §5, §6

[14] = In vivo assessment of brain penetration in mice (IV 1 mg/kg, plasma and brain levels); conditions: mouse, BL/6 mice

SMILES: O=C(NO)c1cc(F)c2c(c1)CN(CC13CC4CC(CC(C4)C1)C3)C2 [compound 33]
- half-life at 1 μM [1]: 7.1 min
- IC50 [2]: 1 to 100 nM
- Selectivity (6 v 8) (fold) ([2]; Table 1, number): 291.4 fold
- Selectivity (6 v 8) (fold) ([2]; Table 1, range class): IV (IV: >100-1000)
- IC50 ([2]; read-out: In vitro enzymatic IC50, HDAC Paralog 6, Table 2): 1 to 100 nM
- IC50 [3]: 1000 to 10000 nM
- IC50 [4]: 1000 to 10000 nM
- IC50 ([4]; read-out: In vitro enzymatic IC50, HDAC Paralog 8, Table 2): 1000 to 10000 nM
- IC50 [5]: 10000 to 100000 nM

SMILES: O=C(CCCCCCC(=O)Nc1ccccc1)NO [Vorinostat]
- CC50 at 72 h [6]: 390 nM
- viability at 4 h, 30 µM [7]: 117 ± 7.5%
- viability at 48 h, 30 µM [8]: 40.3 ± 1.8%

SMILES: O=C(NO)c1ccc(CN2CCc3c([nH]c4ccccc34)C2)c(F)c1 [compound 46]
- half-life at 1 μM [9]: 78.5 min
- fraction unbound at 5 h [10]: 0.062
- Mouse Plasma Stability (% Remaining at 120 min) [11]: 43.8%
- EC50 [12]: 100 nM
- EC50 [13]: > 10000 nM
- concentration at 15 min ([14]; brain, 15 min, read-out: Mouse Brain Conc (μM) at 15 min): 0.15 µM
- concentration at 60 min ([14]; brain, 60 min, read-out: Mouse Brain Conc (μM) at 60 min): 0.03 µM
- concentration at 15 min ([14]; plasma, 15 min, read-out: Mouse Plasma Conc (μM) at 15 min): 0.21 µM
- concentration at 60 min ([14]; plasma, 60 min, read-out: Mouse Plasma Conc (μM) at 60 min): 0.05 µM
- Kp at 15 min ([14]; brain and plasma, brain:plasma, 15 min, read-out: Mouse B:P at 15 min): 0.72
- Kp at 60 min ([14]; brain and plasma, brain:plasma, 60 min, read-out: Mouse B:P at 60 min): 0.6
- IC50 [2]: 1 to 100 nM
- Selectivity (6 v 8) (fold) ([2]; Table 1, number): 51 fold
- Selectivity (6 v 8) (fold) ([2]; Table 1, range class): III (III: >10-100)
- IC50 [4]: 100 to 1000 nM
